Results: PubChem BioAssay AID248 (DTP/NCI, 2004)
Several values for one entry are separate records, joined by “and”; a condition that tells them apart may be missing. Equal values may be shown once. Inconclusive results and toxic doses are left out.

System: L1210 leukemia ip in BDF1 mice, survival T/C
Assay: NCI In Vivo Anticancer Drug Screen. Data for tumor model L1210 Leukemia (intraperitoneal) in B6D2F1 (BDF1) mice
Details: endpoint: mean survival time, higher = longer survival
Procedure, shortened: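 Tumor cells were implanted, animals were treated, and survival was followed. The result divides the treated measurement by the vehicle-control measurement.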

[1] = dose: 75.0 mg/kg/injection, schedule: Q01DX001 (ip), vehicle: saline
[2] = dose: 100.0 mg/kg/injection, schedule: Q04DX002 (ip), vehicle: saline

With C[n+]1cc(-c2ccccc2)cc2ccccc21 the T/C [1] was 97 % of control.
For Oc1ccccc1C=NCCN=Cc1ccccc1O.[Cu], the T/C (dose: 100.0 mg/kg/injection, schedule: Q01DX001 (ip), vehicle: other) was 97 % of control, the T/C [2] was 99 % of control and the T/C (dose: 200.0 mg/kg/injection, schedule: Q01DX001 (ip), vehicle: other) was 103 % of control. For the same compound, the T/C (dose: 200.0 mg/kg/injection, schedule: Q04DX002 (ip), vehicle: saline) was 99 % of control, the T/C (dose: 400.0 mg/kg/injection, schedule: Q01DX001 (ip), vehicle: other) was 94 % of control and the T/C (dose: 400.0 mg/kg/injection, schedule: Q04DX002 (ip), vehicle: saline) was 96 % of control.
With O=C1CCCCC1c1cccc2ccccc12 (stereo unspecified) the T/C (dose: 100.0 mg/kg/injection, schedule: Q01DX001 (sc), vehicle: olive oil, sesame oil, peanut oil) was 97 % of control, the T/C (dose: 200.0 mg/kg/injection, schedule: Q01DX001 (sc), vehicle: olive oil, sesame oil, peanut oil) was 104 % of control and the T/C (dose: 400.0 mg/kg/injection, schedule: Q01DX001 (sc), vehicle: olive oil, sesame oil, peanut oil) was 106 % of control.
For CCN(CC)CCOc1ccc(/C(=C(\Cl)c2ccccc2)c2ccccc2)cc1, the T/C (dose: 6.25 mg/kg/injection, schedule: Q04DX002 (ip), vehicle: saline) was 118 % of control, the T/C (dose: 12.5 mg/kg/injection, schedule: Q04DX002 (ip), vehicle: saline) was 118 % of control and the T/C (dose: 25.0 mg/kg/injection, schedule: Q04DX002 (ip), vehicle: saline) was 124 % of control. The T/C (dose: 50.0 mg/kg/injection, schedule: Q04DX002 (ip), vehicle: saline) was 121 % of control and 124 % of control and the T/C [2] was 96 % of control.
With C1CCc2nnnn2CC1 the T/C (dose: 6.25 mg/kg/injection, schedule: Q01DX009 (ip), vehicle: saline) was 111 % of control, the T/C (dose: 12.5 mg/kg/injection, schedule: Q01DX009 (ip), vehicle: saline) was 101 % of control and 97 % of control and the T/C (dose: 12.5 mg/kg/injection, schedule: Q04DX003 (ip), vehicle: saline) was 103 % of control. For the same compound, the T/C (dose: 25.0 mg/kg/injection, schedule: Q01DX009 (ip), vehicle: saline) was 109 % of control and 90 % of control, the T/C (dose: 25.0 mg/kg/injection, schedule: Q04DX003 (ip), vehicle: saline) was 101 % of control and the T/C (dose: 50.0 mg/kg/injection, schedule: Q01DX009 (ip), vehicle: saline) was 96 % of control. For the same compound, the T/C (dose: 50.0 mg/kg/injection, schedule: Q04DX003 (ip), vehicle: saline) was 95 % of control and 106 % of control.
C=CCC/C(=N\NC(N)=O)c1ccccc1 was tested, and the T/C (dose: 75.0 mg/kg/injection, schedule: Q01DX001 (ip), vehicle: acetone) was 99 % of control, the T/C (dose: 150.0 mg/kg/injection, schedule: Q01DX001 (ip), vehicle: acetone) was 91 % of control and the T/C (dose: 300.0 mg/kg/injection, schedule: Q01DX001 (ip), vehicle: acetone) was 110 % of control.
COc1cc(C)ccc1-c1c(C(=O)O)cccc1[N+](=O)[O-] was tested, and the T/C (dose: 100.0 mg/kg/injection, schedule: Q04DX003 (ip), vehicle: Klucel (hydroxypropylcellulose) (HPC)) was 93 % of control, the T/C (dose: 200.0 mg/kg/injection, schedule: Q04DX003 (ip), vehicle: Klucel (hydroxypropylcellulose) (HPC)) was 95 % of control and the T/C (dose: 400.0 mg/kg/injection, schedule: Q04DX003 (ip), vehicle: Klucel (hydroxypropylcellulose) (HPC)) was 90 % of control.
For CCNP(=S)(OCC)OCC, the T/C [1] was 98 % of control, the T/C (dose: 150.0 mg/kg/injection, schedule: Q01DX001 (ip), vehicle: saline) was 89 % of control and the T/C (dose: 300.0 mg/kg/injection, schedule: Q01DX001 (ip), vehicle: saline) was 96 % of control.
In the case of O=C(CCN1CC1)NCCCCCCCCNC(=O)CCN1CC1, the T/C (dose: 1.0 mg/kg/injection, schedule: Q01DX009 (ip), vehicle: saline) is reported as 91 % of control, the T/C (dose: 2.0 mg/kg/injection, schedule: Q01DX009 (ip), vehicle: saline) is reported as 105 % of control and the T/C (dose: 4.0 mg/kg/injection, schedule: Q01DX009 (ip), vehicle: carboxymethylcellulose (CMC)) is reported as 111 % of control. For the same compound, the T/C (dose: 8.0 mg/kg/injection, schedule: Q01DX009 (ip), vehicle: carboxymethylcellulose (CMC)) was 96 % of control, the T/C (dose: 22.0 mg/kg/injection, schedule: Q01DX001 (ip), vehicle: carboxymethylcellulose (CMC)) was 111 % of control and the T/C (dose: 26.0 mg/kg/injection, schedule: Q01DX009 (ip), vehicle: carboxymethylcellulose (CMC)) was 151 % of control. The T/C (dose: 33.0 mg/kg/injection, schedule: Q01DX001 (ip), vehicle: carboxymethylcellulose (CMC)) was 122 % of control, the T/C (dose: 33.0 mg/kg/injection, schedule: Q01DX009 (ip), vehicle: carboxymethylcellulose (CMC)) was 151 % of control and the T/C (dose: 50.0 mg/kg/injection, schedule: Q01DX009 (ip), vehicle: carboxymethylcellulose (CMC)) was 160 % of control. For the same compound, the T/C (dose: 75.0 mg/kg/injection, schedule: Q01DX001 (ip), vehicle: carboxymethylcellulose (CMC)) was 150 % of control.
